Results as given in patent US10292986B2, “Methods for treating epithelian mesenchymal transition related diseases” (THE BOARD OF REGENTS OF THE UNIVERSITY OF TEXAS SYSTEM, priority 2015, dated 2019).

Key:
[1] = cited from earlier work
[2] = system: 5′ NFκB site of SNAI1, ZEB1, IL-6, and VIM promoters; test: XChIP / Q-gPCR recruitment of transcriptional elongation complex to EMT gene promoters in hSAECs; assay type: cell-based, human
Experimental: Dual cross-link chromatin immunoprecipitation (XChIP). […] Protein-protein cross-linking was first performed with disuccinimidyl glutarate (2mM, Pierce), followed by protein-DNA cross-linking with formaldehyde. […] Immunoprecipitates were collected with 40 μL protein A magnetic beads (Dynal Inc.), washed, and eluted in 250 μL elution buffer for 15 min at room temperature. Samples were de-cross-linked in 0.2 M NaCl at 65 ° C. for 2 h. The precipitated DNA was phenol/chloroform-extracted, precipitated with 100% ethanol, and dried.
Quantitative real time genomic PCR (Q-gPCR). Gene enrichment in XChIP was determined by Q-gPCR using region-specific PCR primers (Table 2). Standard curves were generated using a dilution series of genomic DNA (from 1 ng to 100 ng) for each primer pair. The fold change of DNA in each immunoprecipitate was determined by normalizing the absolute amount to the input DNA reference and calculating the fold change relative to that amount in unstimulated cells.

hSAECs [3] = test: TGFβ-induced EMT gene expression in hSAECs by Q-RT-PCR; assay type: cell-based, human
Experimental: (§1) hSAECs culture and induction of the EMT transformation. An immortalized human small airway epithelial cell (hSAEC) line established by infecting primary hSAECs with human telomerase (hTERT) and cyclin-dependent kinase (CDK)-4 retrovirus constructs was obtained from John Minna, UTSW (Ramirez et al., 2004, Cancer. Res. 64:9027-34). The immortalized hSAECs were grown in SAGM small airway epithelial cell growth medium (Lonza, Walkersville, MD) in a humidified 5% CO2 atmosphere. For induction of the EMT, hSAECs were TGFIβ-stimulated for 15 d (10 ng/ml, PeproTech, Rocky Hill, NJ). The small-molecule IKK inhibitor BMS345541 was purchased from Sigma Aldrich and used at 10 μM (Burke et al., 2003, J. Biol. Chem. 278:1450-56).
(§2) Quantitative real-time reverse transcription-PCR (Q-RT-PCR). Total RNA was extracted using acid guanidinium phenol extraction (Tri Reagent; Sigma). For gene expression analyses, 1 μg of RNA was reverse-transcribed using SuperScript III in a 20-μl reaction mixture. The rest of the procedures were as described previously (Brasier et al., 2011, J. Virol. 85:11752-69). The forward and reverse gene-specific Q-RT-PCR primers are listed in Table 1; relative changes in gene expression were quantified using the ΔΔCT method.

hSAECs [4] = test: TGFβ-induced type II EMT in hSAECs, confocal immunofluorescence microscopy; assay type: cell-based, human
Experimental: as §1
Immunostaining and Confocal Immunofluorescence Microscopy. hSAECs were incubated±TGFβ (10 ng/mL) for 15 days, re-plated on glass cover slips pretreated with rat tail collagen (Roche Applied Sciences), and fixed with 4% paraformaldehyde in PBS. Afterwards, the fixed cells were stained with Alexa Fluor® 568 phalloidin (Life Technologies) for cytoplasmic distribution of F-actin and also counterstained with 4′, 6-diamidino-2-phenylindole (DAPI) for nuclear staining. The cells were visualized with a Nikon fluorescence confocal microscope at a magnification of 63×.
For immunofluorescence staining, hSAECs were plated on rat tail collagen-treated cover glasses and stimulated for the indicated times. The cells were fixed with 4% paraformaldehyde in PBS and incubated with 0.1 m ammonium chloride for 10 min. Cells were permeabilized with 0.5% Triton-100, followed by incubation in blocking buffer (5% goat serum, 0.1% IGEPAL CA-630, 0.05% NaN3, and 1% BSA) and incubated with anti-SNAIL1, anti-E-Cadherin, and anti-vimentin antibodies (Abs; Abcam, Santa Cruz, Calif.) incubation buffer (0.1% IGEPAL CA-630, 0.05% NaN3, and 2% BSA) overnight at 4 ° C. After washing, cells were stained with Alexa Fluor 488-conjugated goat anti-rabbit IgG (Life Technologies) in incubation buffer for 1 h, then visualized with a Nikon fluorescence confocal microscope, magnification 63×.

GFP-Brd4 = conditions: cited from earlier work
Brd4 [5] = target: T1, Brd4 (Homo sapiens, UniProt O60885); conditions: cited from earlier work
C57BL6/J mice [6] = test: TGFβ-induced pulmonary fibrosis in mice, lung Q-RT-PCR of fibrotic program; assay type: in vivo; conditions: JQ1 i.p., repetitive TGFβ stimulation
Experimental: as §2
TGFβ-induced pulmonary fibrosis in mice. Male C57BL6/J mice aged 15 weeks were purchased from The Jackson Laboratory (Bar Harbor, Me.) and housed under pathogen-free conditions with food and water ad libitum. Mice were given multiple challenges with 1 μg/mouse of TGFβ every other day for a total of 15 TGFβ treatments. Meanwhile, mice were pre-treated with or without JQ1 (50 mg/kg body weight, i.p.) before TGFβ administration. Ten days after the last TGFβ treatment, bronchoalveolar lavages were obtained for quantifying innate immune cells and measuring cytokine and chemokine secretion; the mice were sacrificed and lung tissues taken for RNA extraction and fixed for histological examination. Whole lungs were inflated under 25 cm H2O pressure with 10% (v/v) neutral buffered formalin through the tracheal cannula and immersed in formalin for at least 24 hours. […]

C57BL6/J mice [7] = test: TGFβ-induced pulmonary fibrosis in mice, histology and Ashcroft scoring; assay type: in vivo
Experimental: TGFβ-induced pulmonary fibrosis in mice. Male C57BL6/J mice aged 15 weeks were purchased from The Jackson Laboratory (Bar Harbor, Me.) and housed under pathogen-free conditions with food and water ad libitum. Mice were given multiple challenges with 1 μg/mouse of TGFβ every other day for a total of 15 TGFβ treatments. Meanwhile, mice were pre-treated with or without JQ1 (50 mg/kg body weight, i.p.) before TGFβ administration. Ten days after the last TGFβ treatment, bronchoalveolar lavages were obtained for quantifying innate immune cells and measuring cytokine and chemokine secretion; the mice were sacrificed and lung tissues taken for RNA extraction and fixed for histological examination. Whole lungs were inflated under 25 cm H2O pressure with 10% (v/v) neutral buffered formalin through the tracheal cannula and immersed in formalin for at least 24 hours. After being processed into paraffin blocks, the lungs were cut into 5-μm sections and stained either with Masson Trichrome or H&E to assess fibrotic changes in the lungs.
Assessment of levels of pulmonary fibrosis. Pulmonary fibrosis was graded using the Ashcroft scoring method as described (Hubner et al., 2008, Biotechniques. 44:507). In brief, to determine the fibrosis histopathology score for the lung of each mouse, the entire left and right longitudinal lung sections were scored separately (score range, 0 to 9) at ×100 magnification, and the scores were combined (total score range, 0 to 18). […] were intermediate grades assigned on the basis of the predominant histology changes if features described for two distinct grades (as described) were present in the section, to account for the progressive nature of the fibrotic lesion.

Brd4 [8] = target: T1, Brd4; conditions: chronic treatment; cited from earlier work
[9] = ± BMS-345541 10 μM, TGFβ 0 or 15 d
[10] = JQ1 10 μM, TGFβ 10 ng/mL, 15 d time course
[11] = JQ1 10 μM, TGFβ 10 ng/mL 15 d, hSAECs
[12] = JQ1 i.p. (100 mg/kg in FIG. 11 legend, 50 mg/kg in methods), repetitive intranasal TGFβ 1 μg/mouse

CCC(=O)O[C@]1(C(=O)SCF)[C@H](C)C[C@H]2[C@@H]3C[C@H](F)C4=CC(=O)C=C[C@]4(C)[C@@]3(F)[C@@H](O)C[C@@]21C [Fluticasone propionate]
solubility in 95% ethanol ([1]; 95% ethanol): slightly soluble
solubility in dimethyl sulfoxide ([1]; dimethyl sulfoxide): freely soluble
solubility in dimethylformamide ([1]; dimethylformamide): freely soluble
solubility in methanol ([1]; methanol): slightly soluble
solubility in water ([1]; water): practically insoluble

Cc1ccc2nc(NCCN)c3ncc(C)n3c2c1 [BMS-345541]
BRD4 recruitment to EMT gene promoters (SNAI1, ZEB1, IL-6, VIM) [2, 9]: inhibited
CDK9 recruitment to EMT gene promoters (SNAI1, ZEB1, IL-6, VIM) [2, 9]: inhibited
RelA recruitment to EMT gene promoters (SNAI1, ZEB1, IL-6, VIM) [2, 9]: inhibited
phospho-Ser 2 CTD RNA Pol II recruitment to EMT gene promoters (SNAI1, ZEB1, IL-6, VIM) [2, 9]: inhibited
TGFβ-induced enhanced mesenchymal gene expression (hSAECs [3]; IKK kinase inhibitor BMS-345541, hSAECs): inhibited

Cc1sc2c(c1C)C(c1ccc(Cl)cc1)=NC(CC(=O)OC(C)(C)C)c1nnc(C)n1-2 (centres unmarked) [JQ1]
CDK9 recruitment to SNAI1 ([2]; ± JQ1, TGFβ 0 or 15 days): significantly disrupted
RelA recruitment to SNAI1 ([2]; ± JQ1, TGFβ 0 or 15 days): significantly disrupted
TGFβ-induced recruitment of BRD4 to the 5′NFκB site of SNAI1 ([2]; ± JQ1, TGFβ 0 or 15 days): significantly attenuated
phospho-Ser 2 CTD RNA Pol II recruitment to SNAI1 ([2]; ± JQ1, TGFβ 0 or 15 days): significantly disrupted
TGFβ-induced enhanced mesenchymal gene expression (hSAECs [3]; BRD4 inhibitor JQ1, hSAECs): significantly inhibited
TGFβ-induced EMT gene expression in hSAECs (hSAECs [3]; JQ1 10 μM ± TGFβ 10 ng/mL 15 d, FIG. 9B): blocks
CDH1 expression (mRNA) (hSAECs [3]; JQ1 10 μM, TGFβ 10 ng/mL, 15 d, not to levels seen in normal hSAECs): partially maintained
TGFβ-induced expression of FN1 mRNA (hSAECs [3]; [10]): significantly blocked
TGFβ-induced expression of IL-6 mRNA (hSAECs [3]; [10]): significantly blocked
TGFβ-induced expression of SNAI1 mRNA (hSAECs [3]; [10]): significantly blocked
TGFβ-induced expression of VIM mRNA (hSAECs [3]; [10]): significantly blocked
TGFβ-induced expression of ZEB1 mRNA (hSAECs [3]; [10]): significantly blocked
the EMT (Type II EMT) (hSAECs [4]; JQ1 10 μM ± TGFβ 10 ng/mL 15 days, FIG. 9A): blocks
TGFβ-induced acquisition of elongated shape (hSAECs [4]; [11]): blocked
TGFβ-induced stress fiber formation (hSAECs [4]; [11]): blocked
TGFβ-induced upregulation and cytosolic redistribution of SNAI1 (hSAECs [4]; [11]): blocked
TGFβ-induced upregulation and cytosolic redistribution of VIM (hSAECs [4]; [11]): blocked
expression and cellular distribution of CDH1 (hSAECs [4]; [11]): maintained
recovery time in FRAP assays using GFP-Brd4 (GFP-Brd4): accelerates
recruitment and binding of Brd4 to TNFα and E-selectin promoter elements (Brd4 [5]): inhibits
TGFβ-induced pulmonary fibrotic program (mSNAI1, mFN-1, mαSMA, mCol1A1, mIL-6 mRNA in lung) (C57BL6/J mice [6]): significantly inhibited
TGFβ-induced airway fibrosis (C57BL6/J mice [7]; [12]): effectively blocked
lung histology (Masson Trichrome) (C57BL6/J mice [7]; [12]): histologically normal
combined Ashcroft score (C57BL6/J mice [7]; JQ1 mice with chronic TGFβ treatment vs chronic TGFβ alone (score 8), total score range 0 to 18): significantly lower
atherogenic responses and atherosclerosis (Brd4 [8]): attenuates
